# Data taken from article PMC9851200, “Multiparameter phenotypic screening for endogenous TFEB and TFE3 translocation identifies novel chemical series modulating lysosome function” (Autophagy, 2022).
# Key:
# Assay type in all cases: binding
# [1] = molecular target: kinases (KINOMEscan panel) (Homo sapiens, UniProt P09619); conditions: NEW KINOMEscan
# [2] = molecular target: kinases (KINOMEscan panel) (Homo sapiens, UniProt P10721, A829P); conditions: NEW KINOMEscan
# [3] = molecular target: T1, kinases (KINOMEscan panel) (Homo sapiens, UniProt P29320); conditions: kinase EPHA3; NEW KINOMEscan
# T1 sequence (P29320 21-983): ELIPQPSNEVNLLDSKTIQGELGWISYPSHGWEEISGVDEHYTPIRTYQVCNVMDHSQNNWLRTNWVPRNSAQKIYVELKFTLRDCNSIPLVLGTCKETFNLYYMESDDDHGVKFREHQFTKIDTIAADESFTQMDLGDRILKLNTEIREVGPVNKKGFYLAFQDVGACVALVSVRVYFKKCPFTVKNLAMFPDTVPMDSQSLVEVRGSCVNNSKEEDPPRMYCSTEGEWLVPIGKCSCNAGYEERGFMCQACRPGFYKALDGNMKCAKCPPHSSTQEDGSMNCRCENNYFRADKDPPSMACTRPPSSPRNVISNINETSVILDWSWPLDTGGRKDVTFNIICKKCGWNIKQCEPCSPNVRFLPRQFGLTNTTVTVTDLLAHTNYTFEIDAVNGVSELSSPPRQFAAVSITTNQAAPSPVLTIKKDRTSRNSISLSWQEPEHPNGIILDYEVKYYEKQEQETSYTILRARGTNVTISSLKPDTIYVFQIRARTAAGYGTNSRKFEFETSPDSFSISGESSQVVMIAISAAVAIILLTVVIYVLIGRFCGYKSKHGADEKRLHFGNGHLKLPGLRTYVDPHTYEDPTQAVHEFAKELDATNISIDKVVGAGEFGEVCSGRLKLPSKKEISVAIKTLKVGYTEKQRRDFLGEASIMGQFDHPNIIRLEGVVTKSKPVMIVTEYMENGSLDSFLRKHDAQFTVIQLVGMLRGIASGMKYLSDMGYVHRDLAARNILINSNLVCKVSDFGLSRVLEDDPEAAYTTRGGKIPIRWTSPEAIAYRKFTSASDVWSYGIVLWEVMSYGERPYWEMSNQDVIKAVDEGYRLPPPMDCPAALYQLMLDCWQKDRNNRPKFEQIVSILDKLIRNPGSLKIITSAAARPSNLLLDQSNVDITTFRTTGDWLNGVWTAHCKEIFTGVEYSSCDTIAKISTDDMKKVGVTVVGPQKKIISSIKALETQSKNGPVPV
# [4] = molecular target: kinases (KINOMEscan panel) (Homo sapiens, UniProt P42336, I800L); conditions: kinase PIK3CA(I800L); NEW KINOMEscan
# Chain of kinases (KINOMEscan panel) (Homo sapiens, UniProt P42336, I800L) (P42336 whole entry I800L): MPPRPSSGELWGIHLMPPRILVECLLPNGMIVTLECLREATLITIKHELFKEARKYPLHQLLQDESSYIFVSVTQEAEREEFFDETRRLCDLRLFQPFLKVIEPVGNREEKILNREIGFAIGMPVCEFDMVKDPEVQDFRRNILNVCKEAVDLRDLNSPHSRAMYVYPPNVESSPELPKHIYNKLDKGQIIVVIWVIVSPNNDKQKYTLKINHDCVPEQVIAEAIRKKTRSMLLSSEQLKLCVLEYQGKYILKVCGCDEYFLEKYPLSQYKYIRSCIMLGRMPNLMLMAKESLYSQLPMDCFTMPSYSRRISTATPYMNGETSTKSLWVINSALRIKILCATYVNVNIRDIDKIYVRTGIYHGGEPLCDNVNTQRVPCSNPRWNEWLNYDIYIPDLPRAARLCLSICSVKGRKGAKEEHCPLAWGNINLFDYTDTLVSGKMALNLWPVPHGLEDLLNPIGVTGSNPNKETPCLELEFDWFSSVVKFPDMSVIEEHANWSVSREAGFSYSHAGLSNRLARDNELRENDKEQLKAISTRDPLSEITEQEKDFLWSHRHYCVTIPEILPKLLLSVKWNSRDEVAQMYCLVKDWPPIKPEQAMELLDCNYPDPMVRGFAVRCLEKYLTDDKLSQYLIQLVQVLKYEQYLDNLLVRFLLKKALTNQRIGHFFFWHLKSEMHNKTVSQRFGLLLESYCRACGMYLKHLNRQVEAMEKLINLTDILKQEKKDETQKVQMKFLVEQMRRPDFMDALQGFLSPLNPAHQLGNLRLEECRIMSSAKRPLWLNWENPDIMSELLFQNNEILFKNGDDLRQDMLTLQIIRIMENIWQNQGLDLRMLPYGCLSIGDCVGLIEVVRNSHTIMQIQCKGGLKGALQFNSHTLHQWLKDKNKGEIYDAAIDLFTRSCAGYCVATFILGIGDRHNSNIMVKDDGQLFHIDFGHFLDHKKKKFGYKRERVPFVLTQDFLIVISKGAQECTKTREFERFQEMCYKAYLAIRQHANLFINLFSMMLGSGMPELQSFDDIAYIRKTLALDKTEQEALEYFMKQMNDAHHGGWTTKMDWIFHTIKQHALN
# [5] = molecular target: T2, kinases (KINOMEscan panel) (Homo sapiens, UniProt Q09013); conditions: kinase DMPK; NEW KINOMEscan
# T2 sequence (Q09013 1-629): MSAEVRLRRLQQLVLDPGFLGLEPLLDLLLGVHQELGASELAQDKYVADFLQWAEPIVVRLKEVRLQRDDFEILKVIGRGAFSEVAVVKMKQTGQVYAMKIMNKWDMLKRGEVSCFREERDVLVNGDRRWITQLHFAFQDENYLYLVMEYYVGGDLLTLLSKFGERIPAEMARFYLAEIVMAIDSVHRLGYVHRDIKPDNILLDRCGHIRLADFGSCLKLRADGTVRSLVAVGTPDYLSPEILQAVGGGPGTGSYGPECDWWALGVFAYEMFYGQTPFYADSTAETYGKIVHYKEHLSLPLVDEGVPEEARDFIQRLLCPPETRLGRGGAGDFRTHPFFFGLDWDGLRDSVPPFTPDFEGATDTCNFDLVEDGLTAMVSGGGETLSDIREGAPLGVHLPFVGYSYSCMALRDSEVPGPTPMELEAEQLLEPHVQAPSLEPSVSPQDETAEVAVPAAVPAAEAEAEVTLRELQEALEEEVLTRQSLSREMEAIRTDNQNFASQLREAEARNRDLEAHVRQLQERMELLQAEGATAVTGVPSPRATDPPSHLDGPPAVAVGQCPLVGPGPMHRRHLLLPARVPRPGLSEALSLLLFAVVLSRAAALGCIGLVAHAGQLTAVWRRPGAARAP
# [6] = molecular target: T3, kinases (KINOMEscan panel) (Homo sapiens, UniProt Q12866); conditions: kinase MERTK; NEW KINOMEscan
# T3 sequence (Q12866 21-999): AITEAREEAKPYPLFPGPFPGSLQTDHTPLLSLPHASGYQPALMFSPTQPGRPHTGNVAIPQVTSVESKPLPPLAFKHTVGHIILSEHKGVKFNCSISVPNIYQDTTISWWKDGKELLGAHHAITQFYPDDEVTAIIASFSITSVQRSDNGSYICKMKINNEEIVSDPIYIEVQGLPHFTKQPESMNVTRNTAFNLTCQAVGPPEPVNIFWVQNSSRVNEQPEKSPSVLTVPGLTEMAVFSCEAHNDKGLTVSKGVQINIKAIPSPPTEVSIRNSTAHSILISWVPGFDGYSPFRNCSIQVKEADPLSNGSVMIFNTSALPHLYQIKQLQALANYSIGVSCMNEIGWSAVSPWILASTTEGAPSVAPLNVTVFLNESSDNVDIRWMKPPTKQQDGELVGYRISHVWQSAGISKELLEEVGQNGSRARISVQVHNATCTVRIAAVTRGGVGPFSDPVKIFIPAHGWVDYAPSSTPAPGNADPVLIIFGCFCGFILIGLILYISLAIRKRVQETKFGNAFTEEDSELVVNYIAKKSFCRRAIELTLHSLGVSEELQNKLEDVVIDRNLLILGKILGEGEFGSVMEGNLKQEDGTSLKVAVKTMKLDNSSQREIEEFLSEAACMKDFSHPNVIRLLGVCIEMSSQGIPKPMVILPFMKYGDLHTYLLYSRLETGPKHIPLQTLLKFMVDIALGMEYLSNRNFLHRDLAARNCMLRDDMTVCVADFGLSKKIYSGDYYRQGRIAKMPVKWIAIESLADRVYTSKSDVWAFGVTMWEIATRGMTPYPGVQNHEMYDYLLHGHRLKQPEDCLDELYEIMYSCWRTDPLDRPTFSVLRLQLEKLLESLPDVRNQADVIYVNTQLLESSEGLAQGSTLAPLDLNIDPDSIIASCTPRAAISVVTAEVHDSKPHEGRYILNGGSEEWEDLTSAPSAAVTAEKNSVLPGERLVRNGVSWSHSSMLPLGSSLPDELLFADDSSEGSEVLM
# [7] = molecular target: kinases (KINOMEscan panel) (Homo sapiens, UniProt Q9NYY3); conditions: PLK2; NEW KINOMEscan
# Chain of kinases (KINOMEscan panel) (Homo sapiens, UniProt Q9NYY3) (Q9NYY3 whole entry): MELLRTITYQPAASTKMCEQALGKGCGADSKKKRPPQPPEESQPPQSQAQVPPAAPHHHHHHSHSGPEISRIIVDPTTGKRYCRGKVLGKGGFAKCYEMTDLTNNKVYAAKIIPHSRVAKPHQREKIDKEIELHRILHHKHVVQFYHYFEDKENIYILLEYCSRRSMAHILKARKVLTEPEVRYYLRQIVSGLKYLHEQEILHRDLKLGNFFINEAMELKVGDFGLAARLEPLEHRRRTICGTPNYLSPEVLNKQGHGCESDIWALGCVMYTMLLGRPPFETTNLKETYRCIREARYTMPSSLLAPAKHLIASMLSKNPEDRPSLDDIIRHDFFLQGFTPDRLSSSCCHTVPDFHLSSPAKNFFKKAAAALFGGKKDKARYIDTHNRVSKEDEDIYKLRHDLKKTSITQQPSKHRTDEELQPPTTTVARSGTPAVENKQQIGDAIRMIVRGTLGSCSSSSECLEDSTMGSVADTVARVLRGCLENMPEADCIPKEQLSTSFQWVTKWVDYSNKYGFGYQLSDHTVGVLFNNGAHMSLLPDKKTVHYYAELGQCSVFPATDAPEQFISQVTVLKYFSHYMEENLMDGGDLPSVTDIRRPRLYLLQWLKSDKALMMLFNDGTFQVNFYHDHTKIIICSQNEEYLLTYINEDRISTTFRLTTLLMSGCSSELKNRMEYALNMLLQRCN
# [8] = molecular target: kinases (KINOMEscan panel) (Homo sapiens, UniProt Q9UPE1); conditions: SRPK3; NEW KINOMEscan
# Chain of kinases (KINOMEscan panel) (Homo sapiens, UniProt Q9UPE1) (Q9UPE1 whole entry): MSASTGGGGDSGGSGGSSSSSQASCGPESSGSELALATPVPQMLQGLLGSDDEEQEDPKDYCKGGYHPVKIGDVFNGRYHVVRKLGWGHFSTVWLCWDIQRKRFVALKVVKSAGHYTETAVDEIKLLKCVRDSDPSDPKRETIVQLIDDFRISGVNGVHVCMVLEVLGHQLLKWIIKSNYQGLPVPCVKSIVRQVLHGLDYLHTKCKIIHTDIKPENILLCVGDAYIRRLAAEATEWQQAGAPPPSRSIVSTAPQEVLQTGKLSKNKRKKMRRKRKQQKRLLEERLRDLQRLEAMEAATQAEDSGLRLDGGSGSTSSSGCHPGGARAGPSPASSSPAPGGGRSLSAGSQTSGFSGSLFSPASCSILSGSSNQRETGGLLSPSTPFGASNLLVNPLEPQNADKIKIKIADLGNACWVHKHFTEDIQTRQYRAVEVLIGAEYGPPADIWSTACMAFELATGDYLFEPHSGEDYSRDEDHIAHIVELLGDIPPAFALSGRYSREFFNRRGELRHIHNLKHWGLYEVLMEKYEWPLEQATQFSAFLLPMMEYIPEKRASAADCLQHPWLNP
# Chain of kinases (KINOMEscan panel) (Homo sapiens, UniProt P09619) (P09619 33-1106): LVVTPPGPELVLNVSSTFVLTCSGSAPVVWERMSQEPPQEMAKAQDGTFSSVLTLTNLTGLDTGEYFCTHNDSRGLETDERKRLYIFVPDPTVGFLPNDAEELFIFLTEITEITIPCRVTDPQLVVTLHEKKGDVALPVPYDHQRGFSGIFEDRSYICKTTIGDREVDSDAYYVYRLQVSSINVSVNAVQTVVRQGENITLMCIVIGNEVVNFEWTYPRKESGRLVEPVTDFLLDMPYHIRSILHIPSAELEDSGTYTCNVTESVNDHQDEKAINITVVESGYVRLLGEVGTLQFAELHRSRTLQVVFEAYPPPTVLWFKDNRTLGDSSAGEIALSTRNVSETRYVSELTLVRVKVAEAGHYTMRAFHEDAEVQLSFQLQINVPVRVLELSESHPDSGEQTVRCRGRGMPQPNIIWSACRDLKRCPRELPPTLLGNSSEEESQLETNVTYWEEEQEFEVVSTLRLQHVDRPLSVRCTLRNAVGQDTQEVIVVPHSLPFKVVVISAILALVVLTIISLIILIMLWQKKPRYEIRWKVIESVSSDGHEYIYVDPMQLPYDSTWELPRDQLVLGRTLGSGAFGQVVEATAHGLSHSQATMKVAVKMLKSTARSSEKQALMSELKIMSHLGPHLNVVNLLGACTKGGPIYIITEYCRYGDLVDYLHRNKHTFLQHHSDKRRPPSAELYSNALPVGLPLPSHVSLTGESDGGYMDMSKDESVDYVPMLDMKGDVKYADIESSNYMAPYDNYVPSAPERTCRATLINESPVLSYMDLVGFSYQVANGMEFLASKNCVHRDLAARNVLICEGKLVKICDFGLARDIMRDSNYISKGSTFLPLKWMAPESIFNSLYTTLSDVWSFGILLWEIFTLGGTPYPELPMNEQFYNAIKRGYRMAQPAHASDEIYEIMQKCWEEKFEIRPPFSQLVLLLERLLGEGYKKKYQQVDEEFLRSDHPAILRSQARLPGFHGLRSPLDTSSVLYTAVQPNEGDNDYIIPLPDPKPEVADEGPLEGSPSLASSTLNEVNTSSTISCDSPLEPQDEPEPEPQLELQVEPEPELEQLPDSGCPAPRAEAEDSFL
# Chain of kinases (KINOMEscan panel) (Homo sapiens, UniProt P10721, A829P) (P10721 26-976 A829P): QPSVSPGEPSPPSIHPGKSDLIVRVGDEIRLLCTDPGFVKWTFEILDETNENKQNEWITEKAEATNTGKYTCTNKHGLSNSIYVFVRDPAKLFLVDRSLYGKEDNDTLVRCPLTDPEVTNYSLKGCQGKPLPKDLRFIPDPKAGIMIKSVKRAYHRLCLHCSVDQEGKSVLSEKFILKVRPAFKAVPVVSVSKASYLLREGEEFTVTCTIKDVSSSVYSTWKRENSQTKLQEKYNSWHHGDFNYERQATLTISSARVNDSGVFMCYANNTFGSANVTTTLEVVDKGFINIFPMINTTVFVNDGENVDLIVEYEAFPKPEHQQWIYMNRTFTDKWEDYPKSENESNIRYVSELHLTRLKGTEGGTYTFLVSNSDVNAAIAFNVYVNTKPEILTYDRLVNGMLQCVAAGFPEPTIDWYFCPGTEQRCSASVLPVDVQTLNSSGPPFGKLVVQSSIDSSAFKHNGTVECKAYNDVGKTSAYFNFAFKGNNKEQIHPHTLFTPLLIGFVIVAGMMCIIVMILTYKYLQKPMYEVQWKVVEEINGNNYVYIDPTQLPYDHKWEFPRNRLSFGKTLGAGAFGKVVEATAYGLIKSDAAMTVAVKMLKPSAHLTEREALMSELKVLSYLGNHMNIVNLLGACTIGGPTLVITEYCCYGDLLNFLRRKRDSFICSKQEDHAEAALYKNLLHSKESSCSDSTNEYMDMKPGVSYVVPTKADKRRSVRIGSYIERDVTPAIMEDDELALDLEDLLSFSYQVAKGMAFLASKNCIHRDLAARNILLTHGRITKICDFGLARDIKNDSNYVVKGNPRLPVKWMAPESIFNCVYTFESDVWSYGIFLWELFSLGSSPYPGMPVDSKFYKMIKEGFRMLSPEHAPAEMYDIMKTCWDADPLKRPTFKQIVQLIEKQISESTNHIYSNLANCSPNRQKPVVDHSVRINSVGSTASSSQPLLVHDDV
smiles,measurement,setting,value
Cc1cccc(-c2nc(Nc3ccc4nn(C)cc4c3)c3ccccc3n2)n1 [NK167],KINOMEscan PDGFRB,[1],19
same,KINOMEscan KIT(A829P),[2],0
same,KINOMEscan EPHA3,[3],0
same,KINOMEscan PIK3CA(I800L),[4],0
same,KINOMEscan DMPK,[5],0
same,KINOMEscan MERTK,[6],0
same,KINOMEscan PLK2,[7],0
same,KINOMEscan SRPK3,[8],0
Cc1cccc(-c2nc(N(C)c3ccc4ncsc4c3)c3ccccc3n2)n1 [NK-161],KINOMEscan PDGFRB,[1],21
same,KINOMEscan KIT(A829P),[2],19
same,KINOMEscan EPHA3,[3],0
same,KINOMEscan PIK3CA(I800L),[4],0
same,KINOMEscan DMPK,[5],0
same,KINOMEscan MERTK,[6],11
same,KINOMEscan PLK2,[7],0
same,KINOMEscan SRPK3,[8],1
